According to the supplement of paper PMC10307832:

Experiments:
Assay in all cases: relative viability (nuclei count vs DMSO), 5 days (fraction); higher = more cells survive
A549 = tested on: A549
Summary of the method: (§1)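 Lung cancer cell lines in 1536-well plates were dosed by pin tool the day after seeding, either with one drug alone or with a fixed anchor-drug dose plus five library-drug doses (not always all listed) in √10 steps. After 5 days, cells were fixed and their nuclei stained in one step (final 0.05% Triton X-100, 1% formaldehyde, 1 ug/ml Hoechst), then counted on 4× images. Relative viability is the nuclei count in treated wells divided by that in vehicle wells. Values are medians of duplicate plates.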

NCI-H1299 = tested on: NCI-H1299
Summary of the method: as §1

Calu-6 = tested on: Calu-6
Summary of the method: as §1

NCI-H1623 = tested on: NCI-H1623
Summary of the method: as §1

NCI-H838 = tested on: NCI-H838
Summary of the method: as §1

NCI-H1651 = tested on: NCI-H1651
Summary of the method: as §1

EBC-1 = tested on: EBC-1
Summary of the method: as §1

NCI-H650 = tested on: NCI-H650
Summary of the method: as §1

NCI-H520 = tested on: NCI-H520
Summary of the method: as §1

RERF-LC-KJ = tested on: RERF-LC-KJ
Summary of the method: as §1

NCI-H1944 = tested on: NCI-H1944
Summary of the method: as §1

IA-LM = tested on: IA-LM
Summary of the method: as §1

NCI-H1703 = tested on: NCI-H1703
Summary of the method: as §1

PC-3 [JPC-3] = tested on: PC-3 [JPC-3]
Summary of the method: as §1

Cc1sc2c(c1C)C(c1ccc(Cl)cc1)=N[C@@H](CC(=O)OC(C)(C)C)c1nnc(C)n1-2 [JQ1] + COc1cc2c(Oc3ccc(NC(=O)C4(C(=O)Nc5ccc(F)cc5)CC4)cc3F)ccnc2cc1OCCCN1CCOCC1 [Foretinib] (partner 0.25 µM)
relative viability (A549; first compound 0.04 µM): 0.881 | relative viability (A549; first compound 0.1265 µM): 0.76 | relative viability (A549; first compound 0.4 µM): 0.878 | relative viability (A549; first compound 1.265 µM): 0.32 | relative viability (A549; first compound 4 µM): 0.194 | relative viability (NCI-H1299; first compound 0.04 µM): 1.03 | relative viability (NCI-H1299; first compound 0.1265 µM): 0.947 | relative viability (NCI-H1299; first compound 0.4 µM): 0.819 | relative viability (NCI-H1299; first compound 1.265 µM): 0.558 | relative viability (NCI-H1299; first compound 4 µM): 0.34 | relative viability (Calu-6; first compound 0.04 µM): 0.848 | relative viability (Calu-6; first compound 0.1265 µM): 0.79 | relative viability (Calu-6; first compound 0.4 µM): 0.756 | relative viability (Calu-6; first compound 1.265 µM): 0.478 | relative viability (Calu-6; first compound 4 µM): 0.406 | relative viability (NCI-H1623; first compound 0.04 µM): 0.878 | relative viability (NCI-H1623; first compound 0.1265 µM): 0.809 | relative viability (NCI-H1623; first compound 0.4 µM): 0.716 | relative viability (NCI-H1623; first compound 1.265 µM): 0.496 | relative viability (NCI-H1623; first compound 4 µM): 0.441 | relative viability (NCI-H838; first compound 0.04 µM): 1.08 | relative viability (NCI-H838; first compound 0.1265 µM): 0.703 | relative viability (NCI-H838; first compound 0.4 µM): 0.801 | relative viability (NCI-H838; first compound 1.265 µM): 0.31 | relative viability (NCI-H838; first compound 4 µM): 0.285 | relative viability (NCI-H1651; first compound 0.04 µM): 0.904 | relative viability (NCI-H1651; first compound 0.1265 µM): 0.787 | relative viability (NCI-H1651; first compound 0.4 µM): 0.625 | relative viability (NCI-H1651; first compound 1.265 µM): 0.352 | relative viability (NCI-H1651; first compound 4 µM): 0.365 | relative viability (EBC-1; first compound 0.04 µM): 0.098 | relative viability (EBC-1; first compound 0.1265 µM): 0.0891 | relative viability (EBC-1; first compound 0.4 µM): 0.0572 | relative viability (EBC-1; first compound 1.265 µM): 0.0617 | relative viability (EBC-1; first compound 4 µM): 0.0624 | relative viability (NCI-H650; first compound 0.04 µM): 0.996 | relative viability (NCI-H650; first compound 0.1265 µM): 0.717 | relative viability (NCI-H650; first compound 0.4 µM): 0.687 | relative viability (NCI-H650; first compound 1.265 µM): 0.385 | relative viability (NCI-H650; first compound 4 µM): 0.294 | relative viability (NCI-H520; first compound 0.04 µM): 0.732 | relative viability (NCI-H520; first compound 0.1265 µM): 0.793 | relative viability (NCI-H520; first compound 0.4 µM): 0.81 | relative viability (NCI-H520; first compound 1.265 µM): 0.35 | relative viability (NCI-H520; first compound 4 µM): 0.277 | relative viability (RERF-LC-KJ; first compound 0.04 µM): 0.939 | relative viability (RERF-LC-KJ; first compound 0.1265 µM): 0.88 | relative viability (RERF-LC-KJ; first compound 0.4 µM): 0.942 | relative viability (RERF-LC-KJ; first compound 1.265 µM): 0.748 | relative viability (RERF-LC-KJ; first compound 4 µM): 0.555 | relative viability (NCI-H1944; first compound 0.04 µM): 0.797 | relative viability (NCI-H1944; first compound 0.1265 µM): 0.792 | relative viability (NCI-H1944; first compound 0.4 µM): 0.513 | relative viability (NCI-H1944; first compound 1.265 µM): 0.441 | relative viability (NCI-H1944; first compound 4 µM): 0.425 | relative viability (IA-LM; first compound 0.04 µM): 0.943 | relative viability (IA-LM; first compound 0.1265 µM): 0.645 | relative viability (IA-LM; first compound 0.4 µM): 0.224 | relative viability (IA-LM; first compound 1.265 µM): 0.0743 | relative viability (IA-LM; first compound 4 µM): 0.0831 | relative viability (NCI-H1703; first compound 0.04 µM): 0.298 | relative viability (NCI-H1703; first compound 0.1265 µM): 0.284 | relative viability (NCI-H1703; first compound 0.4 µM): 0.313 | relative viability (NCI-H1703; first compound 1.265 µM): 0.318 | relative viability (NCI-H1703; first compound 4 µM): 0.332 | relative viability (PC-3 [JPC-3]; first compound 0.04 µM): 1.06 | relative viability (PC-3 [JPC-3]; first compound 0.1265 µM): 1.05 | relative viability (PC-3 [JPC-3]; first compound 0.4 µM): 0.75 | relative viability (PC-3 [JPC-3]; first compound 1.265 µM): 0.74 | relative viability (PC-3 [JPC-3]; first compound 4 µM): 0.48

COc1cc2nccc(Oc3ccc(NC(=O)Nc4cc(C)on4)c(Cl)c3)c2cc1OC [Tivozanib] + COc1cc2c(Oc3ccc(NC(=O)C4(C(=O)Nc5ccc(F)cc5)CC4)cc3F)ccnc2cc1OCCCN1CCOCC1 [Foretinib] (partner 0.25 µM)
relative viability (A549; first compound 0.005 µM): 0.804 | relative viability (A549; first compound 0.01581 µM): 0.987 | relative viability (A549; first compound 0.05 µM): 1.01 | relative viability (A549; first compound 0.1581 µM): 0.976 | relative viability (A549; first compound 0.5 µM): 1.04 | relative viability (NCI-H1299; first compound 0.005 µM): 1.05 | relative viability (NCI-H1299; first compound 0.01581 µM): 1.09 | relative viability (NCI-H1299; first compound 0.05 µM): 1.11 | relative viability (NCI-H1299; first compound 0.1581 µM): 1.18 | relative viability (NCI-H1299; first compound 0.5 µM): 1.04 | relative viability (Calu-6; first compound 0.005 µM): 0.896 | relative viability (Calu-6; first compound 0.01581 µM): 0.845 | relative viability (Calu-6; first compound 0.05 µM): 0.929 | relative viability (Calu-6; first compound 0.1581 µM): 0.824 | relative viability (Calu-6; first compound 0.5 µM): 0.876 | relative viability (NCI-H1623; first compound 0.005 µM): 0.821 | relative viability (NCI-H1623; first compound 0.01581 µM): 0.989 | relative viability (NCI-H1623; first compound 0.05 µM): 0.938 | relative viability (NCI-H1623; first compound 0.1581 µM): 0.888 | relative viability (NCI-H1623; first compound 0.5 µM): 0.914 | relative viability (NCI-H838; first compound 0.005 µM): 1.06 | relative viability (NCI-H838; first compound 0.01581 µM): 0.952 | relative viability (NCI-H838; first compound 0.05 µM): 1.05 | relative viability (NCI-H838; first compound 0.5 µM): 1.03 | relative viability (NCI-H1651; first compound 0.005 µM): 0.784 | relative viability (NCI-H1651; first compound 0.01581 µM): 0.78 | relative viability (NCI-H1651; first compound 0.05 µM): 0.842 | relative viability (NCI-H1651; first compound 0.1581 µM): 0.645 | relative viability (NCI-H1651; first compound 0.5 µM): 0.831 | relative viability (EBC-1; first compound 0.005 µM): 0.103 | relative viability (EBC-1; first compound 0.01581 µM): 0.104 | relative viability (EBC-1; first compound 0.05 µM): 0.11 | relative viability (EBC-1; first compound 0.1581 µM): 0.0953 | relative viability (EBC-1; first compound 0.5 µM): 0.0941 | relative viability (NCI-H650; first compound 0.005 µM): 1 | relative viability (NCI-H650; first compound 0.01581 µM): 1.02 | relative viability (NCI-H650; first compound 0.05 µM): 0.994 | relative viability (NCI-H650; first compound 0.1581 µM): 1.02 | relative viability (NCI-H650; first compound 0.5 µM): 0.928 | relative viability (NCI-H520; first compound 0.005 µM): 0.595 | relative viability (NCI-H520; first compound 0.01581 µM): 0.702 | relative viability (NCI-H520; first compound 0.05 µM): 0.74 | relative viability (NCI-H520; first compound 0.1581 µM): 0.644 | relative viability (NCI-H520; first compound 0.5 µM): 0.712 | relative viability (RERF-LC-KJ; first compound 0.005 µM): 0.821 | relative viability (RERF-LC-KJ; first compound 0.01581 µM): 0.79 | relative viability (RERF-LC-KJ; first compound 0.05 µM): 0.849 | relative viability (RERF-LC-KJ; first compound 0.1581 µM): 0.919 | relative viability (RERF-LC-KJ; first compound 0.5 µM): 0.863 | relative viability (NCI-H1944; first compound 0.005 µM): 0.918 | relative viability (NCI-H1944; first compound 0.01581 µM): 0.854 | relative viability (NCI-H1944; first compound 0.05 µM): 0.926 | relative viability (NCI-H1944; first compound 0.1581 µM): 0.924 | relative viability (NCI-H1944; first compound 0.5 µM): 0.931 | relative viability (IA-LM; first compound 0.005 µM): 1.21 | relative viability (IA-LM; first compound 0.01581 µM): 1.15 | relative viability (IA-LM; first compound 0.05 µM): 1.24 | relative viability (IA-LM; first compound 0.1581 µM): 1.32 | relative viability (IA-LM; first compound 0.5 µM): 0.94 | relative viability (NCI-H1703; first compound 0.005 µM): 0.335 | relative viability (NCI-H1703; first compound 0.01581 µM): 0.385 | relative viability (NCI-H1703; first compound 0.05 µM): 0.384 | relative viability (NCI-H1703; first compound 0.1581 µM): 0.33 | relative viability (NCI-H1703; first compound 0.5 µM): 0.405 | relative viability (PC-3 [JPC-3]; first compound 0.005 µM): 1.01 | relative viability (PC-3 [JPC-3]; first compound 0.01581 µM): 1.07 | relative viability (PC-3 [JPC-3]; first compound 0.05 µM): 1.07 | relative viability (PC-3 [JPC-3]; first compound 0.1581 µM): 1.06 | relative viability (PC-3 [JPC-3]; first compound 0.5 µM): 1.01
